# Test results from PMC8986850, “Development and exploration of novel substituted thiosemicarbazones as inhibitors of aldose reductase via in vitro analysis and computational study” (Scientific Reports, 2022).
# Target: T1, human AKR1B1 (hAKR1B1) (Homo sapiens, UniProt P15121)
# T1 construct: made in house; host or cells: E. coli BL21 (DE3)
# Test: Inhibition of expressed human AKR1B1 (E. coli BL21 (DE3))
# Format: biochemical
# Conditions: human AKR1B1 expressed in E. coli BL21 (DE3), mean ± SEM of three measurements
# Method: For the enzyme inhibition assay, ALR2 and ALR1 were extracted from bovine sources (ALR2 from eyes and ALR1 from kidneys). Moreover, inhibitions studies were also carried out on the expressed ALR2 (human AKR1B1) and inhibition data for ALR2- bovine source and expressed enzyme was compared and analyzed. The protocols for enzyme extraction and expression in the bacterial system are included in the section of “Supporting information”. […] For the purpose of comparison and validation of enzyme inhibition data, these compounds were tested against human AKR1B1 (hAKR1B1) expressed in E. coli BL21 (DE3).
# For the determination of enzyme activity of ALR1 and ALR2, 100 µL of reaction mixture was composed of 20 µL of buffer (100 mM sodium phosphate, pH 6.2), 30 µL of enzyme extract, 20 µL of substrate (10 mM), 20 µL of cofactor (0.1 mM of NADPH) and 10 µL of test compound (1 mM)[6],[21]. […] Similar protocols were followed for ALR1 and ALR2, however the substrate was different for each enzyme, with sodium-D-glucoronate and DL-glyceraldehyde used as the substrates for the ALR1 and ALR2 assays, respectively. […] In addition, similar protocols were adopted for human AKR1B1 that was expressed in E. coli BL21 (DE3), though the determined protein concentration was 12 µg/mL for the expressed enzyme. Detailed protocols for the preparation of ALR1, ALR2 and expressed human AKR1B1 can be found in the supporting information.
# The newly synthesized N-substitute thiosemicarbazones (3a-o) were dissolved in 100% DMSO and diluted with deionized water, keeping the DMSO concentration equal to 0.1% in the assay.
# The expression plasmid for aldose reductase (pDONR223_AKR1B1_WT) was gift from Addgene in stable culture. Streaking of this culture has been carried out on LB Agar plate then incubated overnight, after growth of colonies , inoculation was performed in LB medium then incubated this medium in shaking incubator at 37 °C. After 48 hours turbidity was measured when OD=0.6 then some of bacterial growth was prepared as 50% glycerol stock. Others are subjected to plasmid isolation following method Miniprep. Meanwhile E. Coli BL21 De3 cells were made competent then transformation with extracted plasmid (AKR1B1) had been carried out heat shock method. Transformed cell ( E.Coli BL21 DE3+AKR1B1) were grown in 37 °C in shaking incubator for 48 hr. The selection for transformed cells was carried out with the help of antibiotic (spectinomycin 50µg/ml). […] For the expression of aldose reductase , E.coli BL21DE3 were induced with of IPTG(Isopropyl-d-thiogalactopyranoside)[3]. […] The expressed enzyme was stabilized by addition 10 mM Tris–HCl buffer, 0.5 mM EDTA, 5 mM β-marcaptoethanol at pH 8.0 and 20% (v/v) glycerol. Cells were lysed with lysis buffer and then precipitation with ammonium sulfate up to 80% saturation was done . the expressed enzyme was dialyzed overnight against tris buffer. Protein quantification was performed following Bradford protein assay. Aliqoutes were stored at -80 refrigerator.
smiles,measurement,value
"CC(C)(C)c1cc(C=NNC(=S)Nc2ccccc2F)c(O)c(C(C)(C)C)c1 [Compound 3m, 2-(3,5-di-tert-butyl-2-hydroxybenzylidene)-N-(2-fluorophenyl)hydrazine carbothioamide]",IC50,1.36 ± 0.004 µM
